# Test results as given in US4143134A, “Halo-phosphonopeptides” (Hoffmann-La Roche Inc., priority 1976, dated 1979).
# Tests used:
# Format in all cases: cell-based
# [1] = system: Escherichia coli NCTC 10418 P.S.; test: in vitro M.I.C. test against Escherichia coli NCTC 10418 P.S.; details: NCTC10418, read-out: M.I.C. (minimum inhibitory concentration)
# Description: (§1) The following Table illustrates the minimum inhibitory concentration (M.I.C.) in μg/ml of a representative peptide derivative provided by this invention, namely (1R)-1-(L-3-fluoroalanylamino)-ethylphosphonic acid, in an in vitro test against various organisms.
# [2] = system: Klebsiella aerogenes Type 33 Ba; test: in vitro M.I.C. test against Klebsiella aerogenes Type 33 Ba; details: TYPE33BA, read-out: M.I.C. (minimum inhibitory concentration)
# Description: as §1
# [3] = system: Haemophilus influenzae NCTC 4560; test: in vitro M.I.C. test against Haemophilus influenzae NCTC 4560; details: NCTC4560, read-out: M.I.C. (minimum inhibitory concentration)
# Description: as §1
# [4] = system: Escherichia coli NCIB 8879 P.S.; test: in vitro M.I.C. test against Escherichia coli NCIB 8879 P.S.; details: NCIB8879, read-out: M.I.C. (minimum inhibitory concentration)
# Description: as §1
# [5] = system: Klebsiella aerogenes O-G KAl; test: in vitro M.I.C. test against Klebsiella aerogenes O-G KAl; details: read-out: M.I.C. (minimum inhibitory concentration)
# Description: as §1
# [6] = system: Escherichia coli C.1.5 P.R.; test: in vitro M.I.C. test against Escherichia coli C.1.5 P.R.; details: read-out: M.I.C. (minimum inhibitory concentration)
# Description: as §1
compound,measurement,setting,value
C[C@H](NC(=O)[C@@H](N)CF)P(=O)(O)O [(1R)-1-(L-3-fluoroalanylamino)-ethylphosphonic acid],MIC,[1],0.25 µg/mL
same,MIC,[2],1 µg/mL
same,MIC,[3],8 µg/mL
same,MIC,[4],0.5 µg/mL
same,MIC,[5],4 µg/mL
same,MIC,[6],4 µg/mL
